Assay results from publication PMC6822579, “A novel benzoxazinone derivative YLT-LL-11 inhibits diffuse large B-cell lymphoma growth via inducing cell cycle arrest and apoptosis” (Bioscience Reports, 2019).

Target: T1, BRD4 (D1); BRD4 (BD1) (Homo sapiens, UniProt O60885)
T1 construct: first bromodomain (D1/BD1), purchased from Biogenie, Canada
Test: AlphaScreen peptide displacement assay
Format: binding

`CCC1Oc2cc(NS(=O)(=O)c3ccccc3OC)ccc2NC1=O` (stereo not shown) [compound 5, N-(2-ethyl-3-oxo-3,4-dihydro-2H-benzo[b] [1, 4]oxazin-7-yl)-2-methoxybenzenesulfonamide] showed an IC50 of 999 nM.
